Assay results taken from patent EP0029617A1, “Use of tertiary heterocyclic amines as synergists in pesticides; derivatives of cycloamines” (priority 1979, dated 1981).
Like-named read-outs stand apart in the source and are kept apart here.

Tested on: Kornkäfer (sitophilus granarius L)
Test: whole plant or invertebrate
Assay type: in vivo
Conditions: for Synergistischer Faktor bei Ripcord: amine 1 mg/ml + Ripcord 0,01 mg/ml; for Synergistischer Faktor bei Talcord: amine 1 mg/ml + Talcord 0,01 mg/ml; for Wirksamkeit in % Substanz +Ripcord: amine 1 mg/ml mixed 1 : 1 with Ripcord 0,01 mg/ml; for Wirksamkeit in % Substanz +Talcord: amine 1 mg/ml mixed 1 : 1 with Talcord 0,01 mg/ml; for mortality at 1000 µg/mL: Sitophilus granarius, read-out: Wirksamkeit in % Substanz allein
Protocol: Test von tertiären, heterocyclischen Aminen allein und im Gemisch mit Pyrethroiden an Kornkäfern (sitophilus granarius L)
In Petrischalen mit 15 cm Durchmesser mit talcumbepuderten Seitenwänden, um das Entfliehen der Kornkäfer zu verhindern, wurden jeweils 2 ml der Acetonlösungen einpipettiert und durch vorsichtiges Schwenken der Schalen gleichmäßig auf dem Boden verteilt. Nach dem Abdampfen des Acetons und dem Antrocknen der Beläge wurden in jede Schale 25 Kornkäfer eingezählt. Nach einer Stunde wurde jeweils ein 12,5 cm Rundfilter in die Schalen eingelegt, um den Käfern das Befreien aus der Rückenlage zu ermöglichen, was auf der glatten Glasplatte nicht möglich ist. Die lichtscheuen Käfer verkrochen sich mit Vorliebe unter die Filter und blieben so ständig mit den Wirkstoffbelägen in Kontakt. Alle Versuche liefen mit 3 Wiederholungen. Nach 3 h wurden die toten Käfer ausgezählt.
In der Tabelle 3 ist jeweils der Durchschnitt der Summe der 4 Einzelwerte angegeben. 25 tote Kornkäfer entsprechen dabei einer Wirkung von 100 %. Die Temperaturen betrugen während der Tests im Durchschnitt 19 - 21°C. Der synergistische Faktor berechnet sich analog wie in Beispiel 1 angegeben.
Die zu prüfenden tertiären, heterocyclischen Amine wurden - mit 1 mg Wirkstoff pro ml als Acetonlösungen angesetzt. Sie wurden im Verhältnis 1 : 1 mit Ripcord bzw. Talcord, die mit 0,01 mg Wirkstoff pro ml als Acetonlösung vorlagen, gemischt. Die Einzelkomponenten wurden im Verhältnis 1 : 1 mit Aceton gemischt.
Auch bei diesen Versuchen zeigten die Kontrollversuche stets bei Versuchsende eine Mortalität der Kornkäfer von 0 %.
Die synergistische Wirkung der tertiären, heterocyclischen Amine auf die Pyrethroide ist auch dann noch deutlich, wenn das Amin in wesentlich niederen Aufwandmengen eingesetzt wird, als dies in Beispiel 3 beschrieben wurde. Die Ergebnisse sind in der Tabelle 4 zusammengestellt. Dieser Versuch zeigt auch, daß Amine mit insektiziden Eigenschaften, wenn sie in Konzentrationen unterhalb ihres insektiziden Wirkungsbereiches eingesetzt werden, immer noch gute synergistische Wirkungen im Gemisch mit Pyrethroiden zeigen. Die Versuche wurden wie im Beispiel 3 beschrieben mit Kornkäfern durchgeführt. Es wurden lediglich die Konzentrationen der eingesetzten tertiären, heterocyclischen Amine geändert. Für die Verdünnung Pyrethroid : Amin = 1 : 10 wurde das Amin mit 0,1 mg Wirkstoff/ml Acetonlösung eingesetzt. Für die Verdünnung 1 : 5 mit 0,05 mg Wirkstoff/ml.

[1] = amine 1 mg/ml in Aceton mixed 1 : 1 with Aceton, 2 ml per dish, 25 weevils, dead counted after 3 h

SMILES	Synergistischer Faktor bei Ripcord	Synergistischer Faktor bei Talcord	Wirksamkeit in % Substanz allein [1]	Wirksamkeit in % Substanz +Ripcord (3 h)	Wirksamkeit in % Substanz +Talcord (3 h)	mortality at 1000 µg/mL [1]	mortality at 1000 µg/mL (3 h)
CN(C)C(=O)N1CCCCCC1 [N-Dimethyl-carbamoyl-hexa-methylenimin]	2,45	5,48	0%	77,2%	53,2%		
OCCN1CCOCC1 [N-Ethanol-morpholin]	2,12	4,0	0%	66,8%	38,8%		
OCCN1CCCC1 [2-N-Pyrrolidino-ethanol]	2,58	5,48	0%	81,2%	53,2%		
c1ccc(OCCCN2CCCCCC2)cc1 [N-3-Phenoxi-propyl-(1)-hexamethylenimin]	2,03	3,42	0%	64,0%	33,2%		
CCCCCCCCN1CCCCC1 [N-1-Octyl-piperidin]	1,74	1,24		54,8%	12,0%	0%	
CCOCCN1CCCC1 [N-1-(1'-Ethoxiethyl-(2))-pyrrolidin]	2,22		0%	70,0%	0%		
CCCCCCCCCCCCCCCCN1CCCCC1CC (stereo not shown) [N-1-Hexadecyl-2-ethyl-piperidin]	2,37	1,94		74,8%	18,8%	0%	
CCCCCCCCCCCCN1CCCC1 [N-1-Dodecyl-pyrrolidin]				92,0%	96,0%	89.3%	
C=CC(C)(CCC=C(C)C)N1CCCCCC1 (stereo not shown) [6-N-Hexamethylenimino-2,6-dimethyl-octadien-(2,7)]	2,41	7,30	0%	76,0%	70,8%		
CCCCCCCCCCCCN1CCCCCC1 [N-1-Dodecyl-hexamethylenimin]	1,59	1,03		64,0%	24,0%	14%	
Clc1ccc(CN2CCCCC2)cc1 [N-4-Chlor-benzyl-piperidin]	2,37	4,82	0%	74,8%	46,8%		
c1ccc2cc(CN3CCCCC3)ccc2c1 [2-N-Piperidino-methyl-naphthalin]	3,05	9,07	0%	96,0%	88,0%		
C(CCCN1CCCC1)CCN1CCCC1 [1,6-N,N-Di-pyrrolidino-hexan]	2,52	4,24	0%	77,2%	41,2%		
CCCCCCCCCCCCN1CC1 [N-1-Dodecyl-ethylenimin]	2,86	3,71		90,0%	36,0%		0%
